The values below come from US20070259893A1, “Pyrazolopyrimidines” (BAYER CROPSCIENCE AKTIENGESELLSCHAFT, priority 2003, published 2007).

A short description of one series: logP by HPLC. Format: physicochemical.
Another series concerns Botrytis cinerea. The experiment in a line: Botrytis test (bean)/protective. Format: in vivo. The conditions noted are these: bean plants, protective spray, application rate 500 g/ha, evaluated 2 days after inoculation. The protocol: Botrytis Test (Bean)/Protective
Solvents: 24.5 parts by weight of acetone
• 24.5 parts by weight of dimethylacetamide Emulsifier: 1.0 part by weight of alkylaryl polyglycol ether
To produce a suitable preparation of active compound, 1 part by weight of active compound is mixed with the stated amount of solvents and emulsifier, and the concentrate is diluted with water to the desired concentration.
To test for protective activity, young plants are sprayed with the preparation of active compound at the stated application rate. After the spray coating has dried on, 2 small pieces of agar colonized by Botrytis cinerea are placed onto each leaf. The inoculated plants are placed in a dark chamber at about 20° C. and 100% relative atmospheric humidity.
The size of the infected areas on the leaves is evaluated 2 days after the inoculation. 0% means an efficacy which corresponds to that of the control, whereas an efficacy of 100% means that no infection is observed.

Broadly, the chromatographic logP is a lipophilicity value derived from retention on a column. Lower therefore signals lower lipophilicity. In “logP by HPLC”, `CC1CCN(c2c(-c3ccc(F)cc3Cl)c(Cl)nc3c(C(=O)C(F)(F)F)cnn23)CC1` [Example 1, 3-trifluoroacetyl-5-chloro-6-(2-chloro-4-fluorophenyl)-7-(4-methylpiperidino)-pyrazolo[1,5-a]pyrimidine] registered a chromatographic logP of 5.44. Further, the efficacy entry in the series on Botrytis cinerea is “more than 90%”.
In the series “logP by HPLC”, `CC(C)C(C)Nc1c(-c2ccc(F)cc2Cl)c(Cl)nc2c(C(=O)C(F)(F)F)cnn12` (stereo not shown) [Example 2] yielded a chromatographic logP of 5.08.
Same read-out and setting: the value for `CC(Nc1c(-c2ccc(F)cc2Cl)c(Cl)nc2c(C#N)cnn12)C(C)(C)C` (stereo not shown) [Example 4] was 4.92.
